Tested on: breast cancer patients
Experiment: Pathological complete remission (pCR) in breast cancer patients treated neoadjuvantly with ixabepilone, split by DRP prediction score (GSE41998)
Type: in vivo, human
Conditions: pre-treatment biopsy
Experimental: An mRNA-based predictor of responsiveness to ixabepilone was developed according to the methods of the invention and applied to gene expression data prepared using clinical samples from breast cancer patients, which was downloaded from Gene Expression Omnibus under accession number GSE41998 (FIG. 1). The samples were diagnostic biopsies analyzed with Affymetrix GeneChips. All the genes listed in Table 2 were measured from clinical samples on the Affymetrix GeneChip and their mean expression subtracted from the mean of all the genes in Table 1. The difference (e.g., a difference score) was then compared to a difference score produced using measured levels of the sensitivity and resistance biomarkers of Tables 1 and 2 from a reference population consisting of 279 breast cancer patients participating in a clinical trial having two treatment arms ((1) ixabepilone and (2) paclitaxel treatment), producing a percentile score on a scale from 0 to 100. As part of the clinical trial, biopsy samples from breast cancer patients later treated neoadjuvantly with ixabepilone were collected prior to treatment. Patients' responses to ixabepilone were subsequently compared to predicted ixabepilone sensitivity using the methods disclosed herein. Patients with pathological complete remission (pCR) were predicted using the disclosed methods to be more sensitive to ixabepilone than patients with no pCR (No_pCR; FIG. 1).

## C/C(=C\c1csc(C)n1)[C@@H]1C[C@@H]2O[C@]2(C)CCC[C@H](C)[C@H](O)[C@@H](C)C(=O)C(C)(C)[C@@H](O)CC(=O)N1 [ixabepilone, (1S,3S,7S,10R,11S,12S,16R)-7,11 dihydroxy-8,8,10,12,16-pentamethyl-3-[(1E)-1-methyl-2-(2-methyl-4-thiazolyl)ethenyl] 17-oxa-4-azabicyclo[14.1.0] heptadecane-5,9-dione]
DRP negative (<=50)
  Non responders (no pCR), number of patients: 52
  Responders (pCR), number of patients: 8
DRP positive (>50)
  Non responders (no pCR), number of patients: 45
  Responders (pCR), number of patients: 27
